Assay results taken from US11771694B2, “Arylamide compounds for treatment and prevention of viral infections” (priority 2020, dated 2023).
≈ marks a conversion by molar mass, not a printed value. Where “and” joins values, the source holds several entries; their conditions need not be identical. Equal values may be shown once. Read-outs that look alike come from different tables or passages of the source.

Experiments:
Serratia marcescens = test: Broth microdilution MIC; type: cell-based; details: 2-3 isolates/organism, read-out: MIC
Klebsiella pneumoniae = test: Broth microdilution MIC; type: cell-based; details: 2-3 isolates/organism, read-out: MIC
Escherichia coli = test: Broth microdilution MIC; type: cell-based; details: 2-3 isolates/organism, read-out: MIC
Pseud. aeruginosa = test: Broth microdilution MIC; type: cell-based; details: Pseudomonas aeruginosa; Pseud. aeruginosa; 2-3 isolates/organism; read-out: MIC
Strept. viridians = test: Broth microdilution MIC; type: cell-based; details: Strept. viridians; 2-3 isolates/organism; read-out: MIC
Entero. faecium (VRE) = test: Broth microdilution MIC; type: cell-based; details: Enterococcus faecium; Entero. faecium (VRE); 2-3 isolates/organism; read-out: MIC
Staph. spp. coagulase- = test: Broth microdilution MIC; type: cell-based; details: Staph. spp. coagulase-; 2-3 isolates/organism; read-out: MIC
Staph. epidermidis = test: Broth microdilution MIC; type: cell-based; details: Staphylococcus epidermidis; Staph. epidermidis; 2-3 isolates/organism; read-out: MIC
Klebsiella oxtoca = test: Broth microdilution MIC; type: cell-based; details: Klebsiella oxtoca; 2-3 isolates/organism; read-out: MIC
Haemophilus influenzae = test: Broth microdilution MIC; type: cell-based; details: 2-3 isolates/organism, read-out: MIC
[1] = system: SARS-CoV-2 spike pseudotyped luciferase virus; type: cell-based
Citrobacter koseri = test: Broth microdilution MIC; type: cell-based; details: 2-3 isolates/organism, read-out: MIC
[2] = system: Rift Valley fever virus (RFFV); type: cell-based; details: Vero; 10, 25 and 50 μM; virus treated only; 24 hpi
[3] = system: human liver cell line (HepG2)
[4] = system: mammalian cells (RBCs, 3T3, HepG2); type: cell-based
HCoV-OC43 = test: Virus yield reduction assay, HCoV-OC43 on RD cells; type: cell-based; details: Betacoronavirus 1, 48 hours post-infection
Description: (§1) For these assays, brilacidin was included during viruses infection and post infection stages. The EC50 values were calculated from best-fit dose response curves with variable slope in Prism 8.

[5] = system: human erythrocytes (RBCs)
Vero cells = details: 24 hours
[6] = system: SARS-CoV-2 (Washington strain 2019-nCoV/USA-WA1/2020); details: Vero; direct assay; 10 μM; 24 hpi
[7] = system: Venezuelan equine encephalitis virus (VEEV) TC83; type: cell-based; details: U87MG cells; 10 μM; virus treated only; 24 hpi
SARS-CoV-2 [8] = test: SARS-CoV-2 testing in Caco-2 cells and primary lung fibroblasts; type: cell-based; details: Caco-2 cells and primary lung fibroblasts from human donors; data not shown
Staph. saprophyticus = test: Broth microdilution MIC; type: cell-based; details: Staphylococcus saprophyticus; Staph. saprophyticus; 2-3 isolates/organism; read-out: MIC
SARS-CoV-2 [9] = details: Calu-3; 10 μM; 24 hpi
[10] = system: SARS-CoV-2 (Washington strain 2019-nCoV/USA-WA1/2020); test: microbe, parasite or virus in culture; type: cell-based; details: Severe acute respiratory syndrome coronavirus 2, Vero
[11] = system: Ulcerative Proctosigmoiditis/Ulcerative Proctitis (UP/UPS); test: Phase 2 study CTIX-BRI-206 in Ulcerative Proctosigmoiditis/Ulcerative Proctitis; type: in vivo, human
Excerpt: Inflammatory biomarkers IL-1β and IL-6 were reduced in colonic tissue biopsies collected at Week 6 (Day 42) compared to those biopsies collected at baseline (FIG. 20, Panel B).

LPS-induced IL-8 release = test: LPS-induced IL-8 release, THP-1 cells, ELISA; type: cell-based; details: Homo sapiens, 8-hour exposure, read-out: IC50, inhibition of LPS-induced IL-8 release
[12] = system: S. aureus and coagulase-negative staphylococci; test: Broth microdilution MIC, defined phenotypes in Staphylococcus species
SARS-CoV-2 [13] = test: microbe, parasite or virus in culture; type: cell-based
[14] = system: dextran sulfate sodium (DSS) induced colitis; test: Mouse DSS colitis model; type: in vivo, mice
human PDE3A = human PDE3A (Homo sapiens, UniProt Q14432); test: PDE-Glo phosphodiesterase assay, PDE3A; type: biochemical; details: 1 μM cAMP substrate; read-out: IC50, inhibition of human PDE3A
[15] = system: embryonic mouse cell line (NIH/3T3)
HCoV-229E = test: Virus yield reduction assay, HCoV-229E on Huh-7 cells; type: cell-based; details: Human coronavirus 229E, 48 hours post-infection
Description: as §1

HCoV-NL63 = test: Virus yield reduction assay, HCoV-NL63 on Vero cells; type: cell-based; details: Human coronavirus NL63, 48 hours post-infection
Description: as §1

[16] = Severe acute respiratory syndrome coronavirus 2, Calu-3
[17] = brilacidin 400 mg/kg, 5-ASA 50 mg/kg per rectum, vs DSS-treated control group, end of study

Chain of human PDE3A (Q14432 whole entry): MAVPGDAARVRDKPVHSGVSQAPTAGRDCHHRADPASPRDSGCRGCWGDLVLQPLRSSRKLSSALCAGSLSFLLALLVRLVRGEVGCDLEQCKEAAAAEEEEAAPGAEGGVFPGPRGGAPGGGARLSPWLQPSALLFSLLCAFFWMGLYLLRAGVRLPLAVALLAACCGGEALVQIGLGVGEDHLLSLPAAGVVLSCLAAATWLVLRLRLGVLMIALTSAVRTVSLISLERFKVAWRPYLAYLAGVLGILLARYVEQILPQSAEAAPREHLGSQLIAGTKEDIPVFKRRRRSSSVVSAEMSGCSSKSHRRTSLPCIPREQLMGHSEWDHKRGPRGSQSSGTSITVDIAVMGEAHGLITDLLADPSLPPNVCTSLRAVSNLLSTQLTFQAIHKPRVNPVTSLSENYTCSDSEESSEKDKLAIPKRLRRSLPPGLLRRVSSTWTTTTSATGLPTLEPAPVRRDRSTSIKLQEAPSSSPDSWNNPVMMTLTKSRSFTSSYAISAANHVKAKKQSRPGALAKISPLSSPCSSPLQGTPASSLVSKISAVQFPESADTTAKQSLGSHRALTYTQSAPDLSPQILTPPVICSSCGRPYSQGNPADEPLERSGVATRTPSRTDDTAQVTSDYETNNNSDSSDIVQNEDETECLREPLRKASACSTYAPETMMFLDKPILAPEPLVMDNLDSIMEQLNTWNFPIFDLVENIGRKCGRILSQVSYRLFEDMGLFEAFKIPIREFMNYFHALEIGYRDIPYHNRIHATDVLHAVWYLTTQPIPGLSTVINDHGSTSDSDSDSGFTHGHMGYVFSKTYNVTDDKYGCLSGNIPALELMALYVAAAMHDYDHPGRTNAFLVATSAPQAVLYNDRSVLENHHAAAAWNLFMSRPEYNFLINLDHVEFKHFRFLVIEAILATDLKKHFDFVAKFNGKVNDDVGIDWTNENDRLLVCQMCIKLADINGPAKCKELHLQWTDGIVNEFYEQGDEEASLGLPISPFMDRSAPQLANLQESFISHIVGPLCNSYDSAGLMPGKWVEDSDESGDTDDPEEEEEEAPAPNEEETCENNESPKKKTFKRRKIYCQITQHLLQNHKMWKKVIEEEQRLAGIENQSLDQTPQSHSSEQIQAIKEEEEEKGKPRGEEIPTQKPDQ

## N=C(N)NCCCCC(=O)Nc1cc(C(F)(F)F)cc(NC(=O)c2cc(C(=O)Nc3cc(C(F)(F)F)cc(NC(=O)CCCCNC(=N)N)c3OC3CCNC3)ncn2)c1OC1CCNC1 (centres unmarked) [brilacidin]
Serratia marcescens
  MIC: 32 µg/mL (≈ 34.2 µM)
Klebsiella pneumoniae
  MIC: 1 to 2 µg/mL (≈ 1.07 to 2.13 µM)
Escherichia coli
  MIC: 1 to 2 µg/mL (≈ 1.07 to 2.13 µM)
Pseud. aeruginosa
  MIC: 32 µg/mL (≈ 34.2 µM)
Strept. viridians
  MIC: 2 to 8 µg/mL (≈ 2.13 to 8.54 µM)
Entero. faecium (VRE)
  MIC: 1 µg/mL (≈ 1.07 µM)
Staph. spp. coagulase-
  MIC: 0.25 to 0.5 µg/mL (≈ 0.267 to 0.534 µM)
Staph. epidermidis
  MIC: 0.25 to 0.5 µg/mL (≈ 0.267 to 0.534 µM)
Klebsiella oxtoca
  MIC: 2 to 8 µg/mL (≈ 2.13 to 8.54 µM)
Haemophilus influenzae
  MIC: 4 to 8 µg/mL (≈ 4.27 to 8.54 µM)
[1]; 0.1 μg/ml
  inhibition (luciferase activity) vs vehicle control: 29%
[1]; 100 μg/ml
  inhibition (luciferase activity) vs vehicle control: 85%
Citrobacter koseri
  MIC: 1 to 2 µg/mL (≈ 1.07 to 2.13 µM)
[2]
  inhibition compared to the DMSO-control: dose-dependent inhibition
[3]
  Selectivity (EC50/MIC) HepG2: 1,031
[4]
  folds more selective than natural HDPs: 50 to 100 folds
HCoV-OC43
  EC50: 4.81 ± 0.95 µM
[5]
  Selectivity (EC50/MIC) RBCs: 558
Vero cells; concentrations higher than 40 μM
  cell viability compared to the DMSO vehicle control: dose-dependent, statistically significant decrease in cell viability
Vero cells; up to 40 μM
  cell viability compared to the DMSO vehicle control: did not affect cell viability
[6]
  decrease in the viral genomic copies: 29%
[7]
  infectious viral titer compared to the DMSO-control: statistically significant reduction
SARS-CoV-2 [8]
  inhibitory properties in ACE2 positive cell lines: supported brilacidin's inhibitory properties
Staph. saprophyticus
  MIC: 0.25 to 0.5 µg/mL (≈ 0.267 to 0.534 µM)
SARS-CoV-2 [9]
  decrease in the viral genomic copies: 33%
[10]; read-out: inhibition of SARS-CoV-2 (plaque assay)
  inhibition at 10 µM: 72%
[10]; read-out: inhibition of infectious viral titer
  inhibition at 10 µM: 53%
[11]; Week 6 (Day 42) compared to baseline
  inflammatory biomarkers IL-1β and IL-6 in colonic tissue biopsies: reduced
[11]; each cohort (50 mg, 100 mg, 200 mg daily retention enema), after 6 weeks
  clinical remission (with Endoscopic response), subjects: > 50%
LPS-induced IL-8 release
  IC50: 10.8 µM
[12]; DAP-NS, OXA-R, 5 isolates
  Brilacidin MIC: 0.5-2
[12]; Drug-Susceptible, 217 isolates
  Brilacidin MIC: 0.25-1
[12]; LZD, OXA-R, 5 isolates
  Brilacidin MIC: 0.5-1
[12]; OXA-R, 161 isolates
  Brilacidin MIC: 0.25-2
[12]; VRSA/VISA, DAP-NS, OXA-R, 3 isolates
  Brilacidin MIC: 0.5-1
[12]; VRSA/VISA, OXA-R, 7 isolates
  Brilacidin MIC: 0.5-1
SARS-CoV-2 [13]; 10 µM
  reduction of infectious viral titer: 95%
SARS-CoV-2 [13]; 20 µM
  reduction of infectious viral titer: 97%
SARS-CoV-2 [13]; Calu-3
  Selectivity Index (CC50/IC50): 426
SARS-CoV-2 [13]; Calu-3, 10 μM
  inhibition exerted at the MOIs of 0.1 and 0.05: comparable to each other
SARS-CoV-2 [13]; Calu-3, 10 μM, MOIs 0.01 and 0.001
  inhibition of virus at the lower MOIs: not showing statistical significance
SARS-CoV-2 [13]; Calu-3, inoculum incubated with 5, 10 or 20 μM for 1 hour, no pre- or post-treatment of cells, Washington and Italy strains
  infectious virus titer, treatment of virus alone (E, entry): marked reductions of virus titer
SARS-CoV-2 [13]; [16]
  IC50: 565 nM
  IC90: 2630 nM
SARS-CoV-2 [13]; Severe acute respiratory syndrome coronavirus 2, Calu-3, read-out: inhibition of infectious viral titer
  inhibition at 20 µM: 61%
[14]; 400 mg/kg per rectum Days 7-11, by Day 11 vs DSS-treated control group
  rectal bleeding: significant decrease
[14]; 400 mg/kg per rectum Days 7-11, vs DSS-treated control group
  stool consistency: significantly more firm
[14]; [17]
  mean reduction in IL-1β in distal colon tissue: 27%
  mean reduction in IL-6 in distal colon tissue: 40%
Human PDE3A
  IC50: ~1800 nM and 1800 nM
[15]
  Selectivity (EC50/MIC) 3T3: 430
HCoV-229E
  EC50: 1950 ± 67 nM
HCoV-NL63
  EC50: 2450 ± 52 nM
